SMILES strings stand for the structures.

Test [1] deals with T1, GDP-loaded, histidine-tagged, truncated (1-169) KRAS G12C (Homo sapiens, UniProt P01116, G12C).
T1 construct: histidine-tagged, truncated (1-169) KRAS proteins; His
The experiment in a line: KRas G12C in vitro covalent MS-based assay. The following applies: KRAS protein 2 uM, denaturing SEC-MS intact mass. The class given is binding. The method, then:
Biological Example 2: KRas G12C In Vitro Covalent MS-Based Assay
GDP-loaded, histidine-tagged, truncated (1-169) KRAS proteins (G12C, WT, G13D, as indicated) at 2 uM final concentration were incubated with the test compounds at the doses and time points indicated in a buffer containing 20 mmol/L HEPES pH 7.5, 150 mmol/L NaCl, 1 mmol/L MgCl 2, and 1 mmol/L DTT. Reactions were quenched by adding formic acid to 0.2%. Samples were buffer exchanged and analyzed by denaturing SEC-MS (Orbitrap Eclipse), Mobile phase: 30% ACN, 0.1% formic acid, 0.02% TFA. Raw data were analyzed by charge state deconvolution with BioPharma Finder 4.1 Intact Mass, ReSpect and Sliding Window algorithms. The masses were calculated via software for KRAS_G12C theoretical sequence and experimental compounds.

The target of test [2] is HIS-KRAS (G12V) (Homo sapiens, UniProt P01116, G12V). The experiment in a line: KRas G12V binding assay (TR-FRET, SOS1-mediated BODIPY FL GTP nucleotide exchange). The following applies: GDP-loaded HIS-KRAS (G12V) 3 nM, 1 hour pre-incubation with compound, 4 hours with SOS1 ExD and BODIPY FL GTP at 25° C. The protocol: Biological Example 3: KRas G12V Binding Assay
HIS-KRAS (G12V) was diluted to 5 uM in EDTA buffer (20 mM HEPES, pH 7.4, 50 mM NaCl, 10 mM EDTA, 0.01% (v/v) Tween-20) and incubated for 30 min at 25° C. The EDTA pretreated HIS-KRAS (G12V) was diluted to 12 nM in assay buffer (25 mM HEPES, pH 7.4, 120 mM NaCl, 5 mM MgCl 2, 1 mM DTT, 0.01% (v/v) Tween 20, 0.1% (w/v) BSA) containing 120 nM GDP (Sigma) and MAb Anti 6HIS—Tb cryptate Gold (Cisbio) and incubated for 1 hour at 25° C. to prepare GDP-loaded HIS-KRAS (G12V). The GDP-loaded HIS-KRAS (G12V) was pre-incubation with diluted compounds in a 384-well plate (Greiner) for 1 hour, then purified SOS1 ExD (Flag tag, aa 564-1049) and BODIPY™ FL GTP (Invitrogen) were added to the assay wells (Final concentration: 3 nM HIS-KRAS (G12V), 2 uM SOS1 ExD, 80 nM BODIPY™ FL GTP, 21 ng/mL MAb Anti 6HIS—Tb cryptate Gold) and incubated for 4 hours at 25° C. TR-FRET signals were then read on Tecan Spark multimode microplate reader. The parameters were F486: Excitation 340 (35) nm, Emission 486 (10) nm, Lag time 100 μs, Integration time 200 μs; F515: Excitation 340 (35) nm, Emission 515 (10) nm, Lag time 100 μs, Integration time 200 μs. TR-FRET ratios for each individual wells were calculated by equation: TR-FRET ratio=(Signal F515/Signal F486)*10000. Then the data were analyzed using a 4-parameter logistic model to calculate IC50 values. The following table lists the IC50 values of certain compounds of the invention.

The target of test [3] is T2, HIS-KRAS (G12C, aa 2-185) (Homo sapiens, UniProt P01116, G12C).
T2 construct: HIS-KRAS (G12C, aa 2-185, Sino biological); purchased Sino biological
The experiment in a line: KRas G12C binding assay (TR-FRET, SOS1-mediated BODIPY FL GTP nucleotide exchange). Particulars: GDP-loaded HIS-KRAS (G12C) 3 nM, 1 hour pre-incubation with compound, 4 hours with SOS1 ExD and BODIPY FL GTP at 25° C. The protocol: Biological Example 1: KRas G12C Binding Assay
HIS-KRAS (G12C, aa 2-185, Sino biological) was diluted to 5 uM in EDTA buffer (20 mM HEPES, pH 7.4, 50 mM NaCl, 10 mM EDTA, 0.01% (v/v) Tween-20) and incubated for 30 min at 25° C. The EDTA pretreated HIS-KRAS (G12C) was diluted to 12 nM in assay buffer (25 mM HEPES, pH 7.4, 120 mM NaCl, 5 mM MgCl 2, 1 mM DTT, 0.01% (v/v) Tween 20, 0.1% (w/v) BSA) containing 120 nM GDP (Sigma) and MAb Anti 6HIS—Tb cryptate Gold (Cisbio) and incubated for 1 hour at 25° C. to prepare GDP-loaded HIS-KRAS (G12C). The GDP-loaded HIS-KRAS (G12C) was pre-incubation with diluted compounds in a 384-well plate (Greiner) for 1 hour, then purified SOS1 ExD (Flag tag, aa 564-1049) and BODIPY™ FL GTP (Invitrogen) were added to the assay wells (Final concentration: 3 nM HIS-KRAS (G12C), 2 uM SOS1 ExD, 80 nM BODIPY™ FL GTP, 21 ng/mL MAb Anti 6HIS—Tb cryptate Gold) and incubated for 4 hours at 25° C. TR-FRET signals were then read on Tecan Spark multimode microplate reader. The parameters were F486: Excitation 340 (35) nm, Emission 486 (10) nm, Lag time 100 μs, Integration time 200 μs; F515: Excitation 340 (35) nm, Emission 515 (10) nm, Lag time 100 μs, Integration time 200 μs. TR-FRET ratios for each individual wells were calculated by equation: TR-FRET ratio=(Signal F515/Signal F486)*10000. Then the data were analyzed using a 4-parameter logistic model to calculate IC50 values. The following table lists the IC50 values of certain compounds of the invention.
For orientation: In TR-FRET formats the signal depends on donor and acceptor labels being close together.

T2 sequence (P01116 2-185 isoform P01116-2 G12C): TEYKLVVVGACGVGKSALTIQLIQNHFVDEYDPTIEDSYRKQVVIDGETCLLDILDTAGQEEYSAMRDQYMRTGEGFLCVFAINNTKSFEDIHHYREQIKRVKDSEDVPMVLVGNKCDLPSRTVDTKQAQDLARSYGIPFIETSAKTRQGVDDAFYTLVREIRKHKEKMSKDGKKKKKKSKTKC
Chain of HIS-KRAS (G12V) (P01116 1-188 isoform P01116-2 G12V): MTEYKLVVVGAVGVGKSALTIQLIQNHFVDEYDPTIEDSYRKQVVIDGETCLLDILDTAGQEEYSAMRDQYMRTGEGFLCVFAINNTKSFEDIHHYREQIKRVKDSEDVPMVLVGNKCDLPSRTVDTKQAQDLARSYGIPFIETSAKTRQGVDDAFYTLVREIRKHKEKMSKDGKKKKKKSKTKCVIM
T1 sequence (P01116 1-169 isoform P01116-2 G12C): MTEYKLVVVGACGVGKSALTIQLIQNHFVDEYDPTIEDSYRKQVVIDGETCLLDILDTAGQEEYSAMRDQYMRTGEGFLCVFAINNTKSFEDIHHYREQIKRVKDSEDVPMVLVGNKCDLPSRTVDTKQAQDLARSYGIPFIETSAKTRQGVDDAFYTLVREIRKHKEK

The term IC50 denotes the concentration that gives 50% inhibition. Regarding `C#Cc1c(F)ccc2cc(O)cc(-c3ncc4c(N(C)C[C@@H]5CCCN5C(=O)C=C)nc(OC[C@@]56CCCN5C[C@H](F)C6)nc4c3F)c12` [Example 2, 1-[(2S)-2-{[(2-{[(2R,7aS)-2-fluoro-hexahydropyrrolizin-7a-yl]methoxy}-7-(8-ethynyl-7-fluoro-3-hydroxynaphthalen-1-yl)-8-fluoropyrido[4,3-d]pyrimidin-4-yl)(methyl)amino]methyl}pyrrolidin-1-yl]prop-2-en-1-one], the “Binding Model” value in test [1] is “Covalent binding”. In addition, the results for the IC50 in test [2] and in test [3] were 0.54 nM and 0.41 nM, respectively.
Taken in the same sequence, the figures for `C#Cc1c(F)ccc2cc(O)cc(-c3ncc4c(N5C[C@H]6CC[C@@H](C5)N6C(=O)C=C)nc(OCC56CCCN5CCC6)nc4c3F)c12` [Example 5, 1-((1R,5S)-3-(7-(8-ethynyl-7-fluoro-3-hydroxynaphthalen-1-yl)-8-fluoro-2-((tetrahydro-1H-pyrrolizin-7a(5H)-yl)methoxy)pyrido[4,3-d]pyrimidin-4-yl)-3,8-diazabicyclo[3.2.1]octan-8-yl)prop-2-en-1-one] were “Covalent binding”, 0.19 nM and 0.37 nM.

The record behind these values is patent US20250145639A1, “MUTANT KRAS MODULATORS AND USES THEREOF” (NEWAVE PHARMACEUTICAL INC., priority 2021, published 2025).
